Key:
BaF3 [1] = test: Antiproliferative activity against mouse BaF3 cells harboring EGFR C797S/Del19/T790M mutant; type: functional, cell-based
BaF3 [2] = test: Antiproliferative activity against mouse BaF3 cells harboring EGFR C797S/L858R/T790M mutant; type: functional, cell-based
[3] = biological target: Epidermal growth factor receptor (Homo sapiens, UniProt P00533); test: Inhibition of wild-type EGFR (unknown origin)
[4] = biological target: Epidermal growth factor receptor (Homo sapiens, UniProt P00533, C797S/EX19DEL/T790M); test: Inhibition of EGFR C797S/T790M/Del19 mutant (unknown origin)
Epidermal growth factor receptor (Homo sapiens, UniProt P00533, C797S/EX19DEL/T790M), sequence (P00533 whole entry, looked up, stated change not applied): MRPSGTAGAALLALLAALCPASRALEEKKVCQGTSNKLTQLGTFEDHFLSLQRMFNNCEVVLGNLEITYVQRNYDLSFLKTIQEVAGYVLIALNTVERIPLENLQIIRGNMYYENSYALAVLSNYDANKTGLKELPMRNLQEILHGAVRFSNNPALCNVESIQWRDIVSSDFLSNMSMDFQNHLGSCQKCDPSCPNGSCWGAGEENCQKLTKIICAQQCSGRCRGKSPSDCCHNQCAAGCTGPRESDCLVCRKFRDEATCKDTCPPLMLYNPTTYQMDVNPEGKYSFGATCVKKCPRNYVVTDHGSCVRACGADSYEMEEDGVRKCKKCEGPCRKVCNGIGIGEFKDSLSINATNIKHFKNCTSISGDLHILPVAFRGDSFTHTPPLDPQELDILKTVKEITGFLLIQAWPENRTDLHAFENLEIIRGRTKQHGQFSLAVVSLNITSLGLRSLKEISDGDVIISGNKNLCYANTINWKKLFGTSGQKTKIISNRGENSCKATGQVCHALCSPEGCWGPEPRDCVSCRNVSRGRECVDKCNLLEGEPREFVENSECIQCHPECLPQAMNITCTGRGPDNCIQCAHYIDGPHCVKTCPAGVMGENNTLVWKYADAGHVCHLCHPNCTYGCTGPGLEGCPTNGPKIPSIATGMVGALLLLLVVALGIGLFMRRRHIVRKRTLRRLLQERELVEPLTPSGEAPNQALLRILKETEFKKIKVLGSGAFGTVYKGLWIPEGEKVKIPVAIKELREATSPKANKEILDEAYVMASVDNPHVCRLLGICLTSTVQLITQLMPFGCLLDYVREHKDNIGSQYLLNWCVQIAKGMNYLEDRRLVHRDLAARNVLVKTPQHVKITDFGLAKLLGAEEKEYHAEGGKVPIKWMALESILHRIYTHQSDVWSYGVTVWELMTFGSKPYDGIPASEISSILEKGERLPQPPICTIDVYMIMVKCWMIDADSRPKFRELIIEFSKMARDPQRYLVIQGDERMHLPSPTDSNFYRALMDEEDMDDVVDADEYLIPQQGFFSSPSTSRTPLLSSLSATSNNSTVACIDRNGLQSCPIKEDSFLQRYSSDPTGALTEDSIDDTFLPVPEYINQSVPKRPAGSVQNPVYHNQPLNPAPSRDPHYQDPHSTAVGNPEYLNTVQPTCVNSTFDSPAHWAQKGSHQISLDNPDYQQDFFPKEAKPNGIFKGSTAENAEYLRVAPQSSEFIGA

[5] = biological target: Epidermal growth factor receptor (Homo sapiens, UniProt P00533, L858R/T790M); test: Inhibition of EGFR T790M/L858R mutant (unknown origin)
Epidermal growth factor receptor (Homo sapiens, UniProt P00533, L858R/T790M), sequence (P00533 25-1210 T790M/L858R limits assumed): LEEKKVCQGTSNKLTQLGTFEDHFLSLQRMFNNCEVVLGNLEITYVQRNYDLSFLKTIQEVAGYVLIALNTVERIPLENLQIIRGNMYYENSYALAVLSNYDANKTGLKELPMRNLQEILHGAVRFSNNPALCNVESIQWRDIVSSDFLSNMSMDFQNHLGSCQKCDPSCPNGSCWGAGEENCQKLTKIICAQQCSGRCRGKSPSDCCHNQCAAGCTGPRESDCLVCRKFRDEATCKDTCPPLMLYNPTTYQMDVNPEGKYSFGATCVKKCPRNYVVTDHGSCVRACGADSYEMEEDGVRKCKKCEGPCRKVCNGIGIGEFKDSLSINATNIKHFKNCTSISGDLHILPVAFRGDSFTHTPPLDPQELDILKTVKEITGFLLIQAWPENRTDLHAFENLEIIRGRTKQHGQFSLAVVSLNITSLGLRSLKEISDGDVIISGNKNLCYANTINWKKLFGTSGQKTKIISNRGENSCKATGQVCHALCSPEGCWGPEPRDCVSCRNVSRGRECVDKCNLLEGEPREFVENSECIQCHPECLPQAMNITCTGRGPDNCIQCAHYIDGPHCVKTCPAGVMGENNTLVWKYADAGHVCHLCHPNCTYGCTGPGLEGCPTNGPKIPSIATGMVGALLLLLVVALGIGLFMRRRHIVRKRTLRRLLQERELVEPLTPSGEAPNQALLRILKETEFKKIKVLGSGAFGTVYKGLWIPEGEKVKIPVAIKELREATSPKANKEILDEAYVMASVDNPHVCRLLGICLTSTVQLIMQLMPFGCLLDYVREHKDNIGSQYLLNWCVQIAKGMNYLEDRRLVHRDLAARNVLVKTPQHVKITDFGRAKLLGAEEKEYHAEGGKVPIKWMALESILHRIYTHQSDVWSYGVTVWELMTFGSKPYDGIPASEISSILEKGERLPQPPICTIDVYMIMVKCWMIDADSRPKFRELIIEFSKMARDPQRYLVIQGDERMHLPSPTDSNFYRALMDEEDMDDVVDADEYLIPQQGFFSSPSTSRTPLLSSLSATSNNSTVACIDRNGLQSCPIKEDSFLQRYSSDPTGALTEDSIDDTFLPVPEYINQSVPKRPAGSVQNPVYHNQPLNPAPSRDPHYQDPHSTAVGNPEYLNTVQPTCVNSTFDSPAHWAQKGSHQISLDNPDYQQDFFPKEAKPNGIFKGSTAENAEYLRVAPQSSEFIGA

[6] = biological target: Epidermal growth factor receptor (Homo sapiens, UniProt P00533, C797S/L858R/T790M); test: Inhibition of EGFR C797S/T790M/L858R mutant (unknown origin)
Epidermal growth factor receptor (Homo sapiens, UniProt P00533, C797S/L858R/T790M), sequence (P00533 25-1210 T790M/C797S/L858R limits assumed): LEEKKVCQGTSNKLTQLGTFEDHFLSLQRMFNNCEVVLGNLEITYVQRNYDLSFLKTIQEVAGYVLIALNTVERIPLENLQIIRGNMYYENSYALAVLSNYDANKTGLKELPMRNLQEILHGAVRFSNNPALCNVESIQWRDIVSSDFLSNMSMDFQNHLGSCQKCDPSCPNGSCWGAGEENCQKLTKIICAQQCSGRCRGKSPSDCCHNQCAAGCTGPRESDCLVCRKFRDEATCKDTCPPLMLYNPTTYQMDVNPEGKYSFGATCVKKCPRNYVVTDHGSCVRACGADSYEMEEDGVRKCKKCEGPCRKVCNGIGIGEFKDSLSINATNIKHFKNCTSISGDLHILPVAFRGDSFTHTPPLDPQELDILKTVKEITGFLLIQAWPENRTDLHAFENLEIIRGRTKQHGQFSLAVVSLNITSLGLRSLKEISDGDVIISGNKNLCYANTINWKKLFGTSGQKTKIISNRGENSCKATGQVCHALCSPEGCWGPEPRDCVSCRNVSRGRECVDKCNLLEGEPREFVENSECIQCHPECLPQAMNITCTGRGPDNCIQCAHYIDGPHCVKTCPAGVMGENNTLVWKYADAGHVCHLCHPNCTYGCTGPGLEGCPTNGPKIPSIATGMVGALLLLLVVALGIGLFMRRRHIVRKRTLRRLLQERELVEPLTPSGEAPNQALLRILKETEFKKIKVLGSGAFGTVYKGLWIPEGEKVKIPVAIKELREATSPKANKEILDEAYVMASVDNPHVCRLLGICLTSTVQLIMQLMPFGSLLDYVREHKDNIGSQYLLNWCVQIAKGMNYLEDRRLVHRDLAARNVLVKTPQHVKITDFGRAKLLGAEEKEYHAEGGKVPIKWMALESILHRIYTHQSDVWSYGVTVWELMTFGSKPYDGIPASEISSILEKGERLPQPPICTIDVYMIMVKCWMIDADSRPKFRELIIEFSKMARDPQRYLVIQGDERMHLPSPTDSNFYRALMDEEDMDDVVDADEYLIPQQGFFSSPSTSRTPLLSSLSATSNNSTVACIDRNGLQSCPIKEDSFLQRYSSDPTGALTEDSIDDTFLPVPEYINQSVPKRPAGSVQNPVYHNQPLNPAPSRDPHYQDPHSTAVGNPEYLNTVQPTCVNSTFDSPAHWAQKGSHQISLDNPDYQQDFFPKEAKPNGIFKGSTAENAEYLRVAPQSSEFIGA

[7] = Toxicity in nude mouse xenografted with human NCI-H1975 cells assessed as body weight loss at 25 mg/kg, po measured for 7 days; type: organism-based; details: in vivo, 168 h, time 7 day
[8] = Cytotoxicity against human HUVEC cells; type: toxicity, cell-based
[9] = Cytotoxicity against VEGF-stimulated human HUVEC cells; type: toxicity, cell-based
[10] = Cytotoxicity against human HaCaT cells; type: toxicity, cell-based
[11] = Cytotoxicity against human HK-2 cells; type: toxicity, cell-based
BaF3 [12] = test: Inhibition of cell growth in mouse BaF3 cells harboring EGFR L858R/T790M/C797S mutant; type: functional, cell-based
BaF3 [13] = test: Inhibition of cell growth in mouse BaF3 cells harboring EGFR del19/T790M/C797S mutant; type: functional, cell-based
[14] = Cytotoxicity against human L02 cells; type: toxicity, cell-based
BaF3 [15] = test: Inhibition of cell growth in mouse BaF3 cells harboring EGFR del19/T790M/C797S mutant incubated for 72 hrs by fluorescence based assay; type: functional; details: BaF3, 72 h
BaF3 [16] = test: Inhibition of cell proliferation in mouse BaF3 cells harboring EGFR L858R/T790M mutant incubated for 72 hrs by MTS assay; type: functional, cell-based; details: BaF3, 72 h

Epidermal growth factor receptor (Homo sapiens, UniProt P00533), sequence (P00533 whole entry): as the sequence (P00533 whole entry, looked up, stated change not applied) above

Row | IC50 (BaF3 [1]) [µM] | IC50 (BaF3 [2]) [µM] | Structure (SMILES) | other results
1 | 0.41 | 0.398 | CN(C)C1CCN(c2ccc(Nc3ncc(Br)c(Nc4ccccc4NS(=O)(=O)C4CC4)n3)cc2NS(=O)(=O)C2CC2)CC1 | –
2 | 0.199 | 0.211 | Cn1ccc2c(Nc3ncc(Cl)c(Nc4ccccc4NS(=O)(=O)C4CC4)n3)cccc21 | –
3 | 0.004 | 0.004 | CN(C)C1CCN(c2ccc(Nc3ncc(Br)c(Nc4ccccc4NS(=O)(=O)C4CC4)n3)cc2)CC1 | –
4 | 0.022 | 0.029 | Cc1cc(Nc2ncc(Cl)c(Nc3ccccc3NS(=O)(=O)C3CC3)n2)ccc1N(C)CCN(C)C | –
5 | 0.024 | 0.028 | CN(C)CCN(C)c1ccc(Nc2ncc(Cl)c(Nc3ccccc3NS(=O)(=O)C3CC3)n2)cc1 | –
6 | 0.177 | 0.183 | Cn1ccc2c(Nc3ncc(Br)c(Nc4ccccc4NS(=O)(=O)C4CC4)n3)cccc21 | –
7 | 0.185 | 0.196 | O=S(=O)(Nc1ccccc1Nc1nc(Nc2cccc3[nH]ccc23)ncc1Cl)C1CC1 | –
8 | 0.608 | 0.613 | CCS(=O)(=O)Nc1cc(Nc2ncc(Br)c(Nc3ccccc3NS(=O)(=O)C3CC3)n2)ccc1N1CCC(N(C)C)CC1 | –
9 | 0.001 | 0.002 | Cc1cc(Nc2ncc(Cl)c(Nc3ccccc3NS(=O)(=O)C3CC3)n2)ccc1N1CCC(N(C)C)CC1 | IC50 [3]: 0.0687 µM; IC50 [4]: 0.00029 µM; IC50 [5]: 0.0126 µM; IC50 [6]: 0.00037 µM
10 | 0.015 | 0.017 | Cc1cc(Nc2ncc(Br)c(Nc3ccccc3NS(=O)(=O)C3CC3)n2)ccc1N(C)CCN(C)C | –
11 | – | – | C=CC(=O)Nc1cc(Nc2nccc(-c3cn(C)c4ccccc34)n2)c(OC)cc1N(C)CCN(C)C [OSIMERTINIB] | Activity [7]: Toxic; IC50 [8]: 2.4 µM; IC50 [9]: 2.4 µM; IC50 [10]: 3.36 µM; IC50 [11]: 2.14 µM
12 | 0.407 | 0.413 | CN1CCCN(c2ccc(Nc3ncc(Cl)c(Nc4ccccc4NS(=O)(=O)C4CC4)n3)cc2NS(=O)(=O)C2CC2)CC1 | –
13 | 0.712 | 0.723 | CN1CCCN(c2ccc(Nc3ncc(Cl)c(Nc4ccccc4NS(=O)(=O)C4CC4)n3)cc2NS(C)(=O)=O)CC1 | –
14 | 0.388 | 0.324 | CN(C)CCn1ccc2cccc(Nc3ncc(Br)c(Nc4ccccc4NS(=O)(=O)C4CC4)n3)c21 | –
15 | 0.271 | 0.257 | Cn1ccc2ccc(Nc3ncc(Br)c(Nc4ccccc4NS(=O)(=O)C4CC4)n3)cc21 | –
16 | 0.769 | 0.785 | CN(C)C1CCN(c2ccc(Nc3ncc(Br)c(Nc4ccccc4NS(=O)(=O)C4CC4)n3)cc2NS(C)(=O)=O)CC1 | –
17 | – | – | CN1CCN(c2ccc(Nc3ncc(Cl)c(Nc4ccccc4P(C)(C)=O)n3)cc2Br)CC1 | IC50 (BaF3 [12]): 0.0031 µM; IC50 (BaF3 [13]): 0.0024 µM
18 | 0.008 | 0.01 | CN1CCCN(c2ccc(Nc3ncc(Cl)c(Nc4ccccc4NS(=O)(=O)C4CC4)n3)cc2)CC1 | –
19 | 0.775 | 0.791 | CN1CCCN(c2ccc(Nc3ncc(Br)c(Nc4ccccc4NS(=O)(=O)C4CC4)n3)cc2NS(C)(=O)=O)CC1 | –
20 | 0.795 | 0.844 | CN(C)C1CCN(c2ccc(Nc3ncc(Cl)c(Nc4ccccc4NS(=O)(=O)C4CC4)n3)cc2NS(C)(=O)=O)CC1 | –
21 | 0.079 | 0.082 | COc1cc(N2CCCN(C)CC2)ccc1Nc1ncc(Cl)c(Nc2ccccc2NS(=O)(=O)C2CC2)n1 | –

Row | IC50 (BaF3 [1]) [µM] | IC50 (BaF3 [2]) [µM] | Structure (SMILES) | other results
22 | 0.159 | 0.124 | O=S(=O)(Nc1ccccc1Nc1nc(Nc2cccc3[nH]ccc23)ncc1Br)C1CC1 | –
23 | 0.008 | 0.004 | Cc1cc(Nc2ncc(Cl)c(Nc3ccccc3NS(=O)(=O)C3CC3)n2)ccc1N1CCCN(C)CC1 | –
24 | 0.075 | 0.079 | COc1cc(N2CCC(N(C)C)CC2)ccc1Nc1ncc(Br)c(Nc2ccccc2NS(=O)(=O)C2CC2)n1 | –
25 | 0.682 | 0.698 | CCS(=O)(=O)Nc1cc(Nc2ncc(Cl)c(Nc3ccccc3NS(=O)(=O)C3CC3)n2)ccc1N1CCCN(C)CC1 | –
26 | 0.198 | 0.185 | Cn1cnc2ccc(Nc3ncc(Cl)c(Nc4ccccc4NS(=O)(=O)C4CC4)n3)cc21 | –
27 | 0.351 | 0.377 | CN1CCCN(c2ccc(Nc3ncc(Br)c(Nc4ccccc4NS(=O)(=O)C4CC4)n3)cc2NS(=O)(=O)C2CC2)CC1 | –
28 | 0.191 | 0.175 | O=S(=O)(Nc1ccccc1Nc1nc(Nc2cccc3[nH]cnc23)ncc1Cl)C1CC1 | –
29 | 0.115 | 0.103 | Cn1cnc2ccc(Nc3ncc(Br)c(Nc4ccccc4NS(=O)(=O)C4CC4)n3)cc21 | –
30 | 0.065 | 0.071 | COc1cc(N2CCC(N3CCN(C)CC3)CC2)ccc1Nc1ncc(Cl)c(Nc2ccccc2P(C)(C)=O)n1 [BRIGATINIB] | IC50 [8]: 2.17 µM; IC50 [9]: 2.4 µM; IC50 [10]: 5.02 µM; IC50 [14]: 1.4 µM; IC50 [11]: 2.13 µM
31 | 0.274 | 0.284 | Cn1ccc2ccc(Nc3ncc(Cl)c(Nc4ccccc4NS(=O)(=O)C4CC4)n3)cc21 | –
32 | 0.004 | 0.003 | Cc1cc(Nc2ncc(Br)c(Nc3ccccc3NS(=O)(=O)C3CC3)n2)ccc1N1CCC(N(C)C)CC1 | –
33 | 0.101 | 0.098 | COc1cc(N2CCC(N(C)C)CC2)ccc1Nc1ncc(Cl)c(Nc2ccccc2NS(=O)(=O)C2CC2)n1 | –
34 | 0.011 | 0.015 | CN(C)C1CCN(c2ccc(Nc3ncc(Cl)c(Nc4ccccc4NS(=O)(=O)C4CC4)n3)cc2)CC1 | –
35 | 0.065 | 0.067 | COc1cc(N2CCCN(C)CC2)ccc1Nc1ncc(Br)c(Nc2ccccc2NS(=O)(=O)C2CC2)n1 | –
36 | 0.635 | 0.631 | CCS(=O)(=O)Nc1cc(Nc2ncc(Br)c(Nc3ccccc3NS(=O)(=O)C3CC3)n2)ccc1N1CCCN(C)CC1 | –
37 | 0.342 | 0.356 | CN(C)CCn1ccc2cccc(Nc3ncc(Cl)c(Nc4ccccc4NS(=O)(=O)C4CC4)n3)c21 | –
38 | 0.013 | 0.015 | CN(C)CCN(C)c1ccc(Nc2ncc(Br)c(Nc3ccccc3NS(=O)(=O)C3CC3)n2)cc1 | –
39 | 0.001 | 0.001 | Cc1cc(Nc2ncc(Br)c(Nc3ccccc3NS(=O)(=O)C3CC3)n2)ccc1N1CCCN(C)CC1 | IC50 [3]: 0.0613 µM; IC50 [4]: 0.0003 µM; IC50 [5]: 0.0102 µM; IC50 [6]: 0.00028 µM
40 | – | – | COc1cc(N2CCC(N3CCN(C)CC3)CC2)ccc1Nc1ncc(Cl)c(Nc2ccccc2NS(C)(=O)=O)n1 | IC50 (BaF3 [15]): 0.027 µM
41 | – | – | O=C(Nc1nccs1)C(c1cc(F)ccc1O)N1Cc2ccccc2C1=O (stereo unspecified) | IC50 (BaF3 [16]): ~0.01 µM

From ChEMBL document CHEMBL5579839, “Discovery of new cyclopropane sulfonamide derivatives as EGFR inhibitors to overcome C797S-mediated resistance and EGFR double mutation” (Eur J Med Chem, 2024)
